The text below walks through data of patent publication US12606797B2, “Methods of detection of mechanically-activated platelet activation and uses thereof” (Arizona Board of Regents on Behalf of the University of …, priority 2018, dated 2026).

The subject of test [1] is human platelets (GFP, PRP). The experiment in a line: Platelet aggregation induced with biochemical agonists (optical aggregometer). It is filed as cell-based. As to conditions: 1 mM CaCl2, 5 min, 37° C.; for ability to induce platelet aggregation in GFP: gel-filtered platelets, 32 μM TRAP6, 1 U/mL thrombin, 100 μg/mL collagen, 1 mM arachidonic acid. The method, then: Platelet aggregation was assessed in PRP or GFP samples employing dual channel optical aggregometer (Model 560-VS, Chrono-Log Corporation, Havertown, PA). […] Platelet count in aggregation mixture was adjusted to 150-200×10^3 plt/μL (in GFP) and to 300-350×10^3 plt/μL (in PRP), final CaCl2 concentration was 1 mM. Aggregation was started by adding mentioned agonists and running for 5 minutes at 37° C. with 1000 rpm stirring. The changes in relative light transmittance were recorded, and arbitrary values for each aggregation curve were calculated with Aggrolink software (Chrono-Log Corporation, Havertown, PA).
(§1) To define the molecular signature of SMPA, biochemical versus mechanical platelet activation by uniform shear stress applied in the hemodynamic shearing device (HSD) was compared. […] Mechanical platelet activation was obtained via GFP exposure to uniform continuous shear in HSD as described above in “Shear-mediated platelet activation”. Physiologically relevant shear stress levels (30 and 50 dynes/cm^2) close to those found in blood stream vs. sub-pathological shear conditions (70 dynes/cm^2) existing within MCS were examined. Initially, the P-selectin exposure, as a known marker of platelet activation and α-granule secretion, was detected employing mono immunostaining and quantified by flow cytometry. Those cells showing high fluorescence intensity (≥3000 AU) were gated as P-selectin positive platelets and marked as sub-population P6 (FIGS. 2A-2G).

The test system of test [2] is P-selectin exposure on gel-filtered platelets. The experiment in a line: Flow cytometry of platelet P-selectin exposure (anti-CD62P-APC) after biochemical activation. It is filed as cell-based, human. As to conditions: 2.5 mM CaCl2, room temperature; for number of CD62P-positive cells, % of whole platelet population: GFP 2×10^4 platelets/μL, 10 uM ADP, 10 μg/mL epinephrine, 1 mM arachidonic acid, gate ≥3000 AU; for P-selectin exposure (in words): GFP, 32 μM TRAP6, 1 U/mL thrombin, 100 μg/mL collagen. The method, then:
(§2) To induce biochemical activation, GFP (2×10^4 platelets/μL, final volume 100 μL) were treated with biochemical agonists mentioned above in presence of 2.5 mM CaCl2), mixed gently and incubated undisturbed for 15 minutes at room temperature. Then APC-conjugated anti-CD62P (clone Psel.KO2.3, eBioscience, San Diego, CA) and FITC-labeled annexin V (eBioscience, San Diego, CA) were added to indicate platelet a-granule secretion and phosphatidylserine externalization (PSE) during platelet biochemical activation. Integrin GP αIIbβ3 activation was evaluated by double-staining technique. […] A pair of antibodies against αIIbβ3 was added simultaneously into a test tube containing activated platelet sample to identify the number of platelets exposing activated αIIbβ3 among all αIIbβ3-expressing platelet population. Cells were incubated with annexin V or antibodies for 30 minutes at room temperature in the dark, washed by centrifugation (5000 rpm, 5 min), resuspended in 1 ml of Ca-free 0.05 M phosphate buffer (pH-7.4) and transferred in polystyrene tube for flow cytometry. Flow cytometry analysis was performed within 15 minutes after sample preparation.
(§3) Flow cytometry was performed on FACS Canto II (BD Biosciences, San Jose, CA) using the following configurations: HeNe red laser (633 nm) and 660/20 filter—for APC, solid state blue laser (488 nm) and 530/30 filter—for FITC-stained cell detection. Single platelets were distinguished from their aggregates and microparticles based on their characteristic forward versus side scatter. […] BD FACSDiva™ software was applied to analyze flow cytometry data statistics (percentage of marker-positive platelets among whole platelet population and their median fluorescence intensity).
as §1
Background: A flow cytometer gives signals particle by particle.

The subject of test [3] is integrin GPIIb/IIIa activation on gel-filtered platelets. In words: Flow cytometry of integrin GPIIb/IIIa activation (anti-CD41/CD61-FITC PAC-1 and anti-CD41-APC double staining). Format: cell-based, human. As to conditions: for number of platelets presenting activated GPIIb/IIIa (CD41/CD61-positive among CD41-positive) / elevation of number of platelets presenting activated GPIIb/IIIa as compared with intact platelets: GFP, 10 uM ADP, 1 U/mL thrombin; for number of platelets presenting activated GPIIb/IIIa (CD41/CD61-positive among CD41-positive): 2.5 mM CaCl2, gate ≥4000 AU, intact platelets 6.7±2.9%; for number of CD41/CD61-positive platelets following GFP stimulation (in words): 2.5 mM CaCl2, vs intact platelets. The method, then: as §2, §3
To assess the magnitude of integrin GPIIb/IIIa activation after platelet stimulation with constant shear or biochemical agonists, the number of whole GPIIb/IIIa-positive platelet population was compared with the number of those presenting activated form of the integrin on their membrane. For this purpose, double staining with APC-conjugated anti-CD41 and FITC-conjugated anti-CD41/CD61 was applied as describe in the methods described above. Among parental CD41-positive platelet population, CD41/CD61-positive cells were distinguished based on their FITC-fluorescence intensity level (≥4000 AU) and assumed as presenting activated form of integrin GPIIb/IIIa on their surface (FIGS. 4A-4G, sub-population P3).

Test [4] has as its system phosphatidylserine externalization on gel-filtered platelets. In words: Annexin V binding assay of phosphatidylserine externalization (flow cytometry). Format: cell-based, human. The settings on record: GFP, 2.5 mM CaCl2; for annexin V binding after platelet stimulation (in words): agonist taken alone. The method, then:
as §2, §3
To detect phosphatidylserine exposure, an annexin V binding assay is extensively utilized. The principle of the assay is based on the high affinity binding of protein annexin V labeled with fluorescence dye to phosphatidylserine on platelet surface with the aid of Ca2+ ions (Demchenko, Cytotechnology, vol. 65, no. 2, pp. 157-72, March (2013)).

Test [5] has as its system procoagulant activity of gel-filtered platelets. The experiment in a line: Prothrombinase-based Platelet Activation State (PAS) assay, thrombin generation on platelet surface. Format: cell-based, human. The settings on record: platelets 5×10^3 cells/μL, 200 nM acetylated prothrombin, 100 pM factor Xa, 37° C., 10 minutes. The source says:
PAS was quantified by chemically modified prothrombinase-based chromogenic assay developed by Jesty and Bluestein (Jesty & Bluestein, Anal. Biochem. (1999), Jesty et al., Platelets, vol. 14, no. 3, pp. 143-149, 2003). The assay measures the rate of acetylated thrombin generation from acetylated proenzyme cleavage by factor Xa in presence of activated platelets. […] Activated, but not resting, platelets present factor Va and negatively charged phospholipids (mostly phosphatidylserine) on their surface for prothrombinase complex formation and thrombin generation. Thus, the rate of enzymatic cleavage of chromogenic substrate Chromozym TH (Tosyl-Gly-Pro-Arg-4-nitranilide acetate, Roche Diagnostics GmbH, Mannheim, Germany) by acetylated thrombin reflects the value of initial activation state of the platelets tested (Jesty & Bluestein, Anal. Biochem. (1999), Rubenstein et al., Circulation, (2004)).
Platelet samples preliminary stimulated with biochemical activators, shear or sonication (platelet count—5×10^3 cells/μL) were incubated with 200 nM acetylated prothrombin, 100 pM factor Xa (Enzyme Research Laboratories, South Bend, IN), 5 mM CaCl2) in a volume of 100 μL 20 mM HEPES, pH 7.4, containing 130 mM NaCl and 0.1% BSA at 37° C. for 10 minutes. Then, 10 μL of each timed sample was measured for thrombin activity in microplate wells, containing 0.3 mM Cromozyme TH, 3 mM EDTA in 20 mM HEPES, pH 7.4, containing 130 mM NaCl and 0.1% BSA. Kinetic change of absorbance (λ=405 nm) was measured for 7 minutes at room temperature using microplate reader Versa MAX (Molecular Devices Corp., Sunnyvale, CA). The value of PAS or initial rate of thrombin generation was calculated as a slope of kinetic curve (ΔA405/min) with SoftMax Pro6 Software.

A further test concerns human platelets. The settings on record: not sensitive to cyclooxygenase inhibitors; cited from earlier work.

Consider `Nc1ncnc2c1ncn2[C@@H]1O[C@H](COP(=O)(O)OP(=O)(O)O)[C@@H](O)[C@H]1O` [ADP, Adenosine DiPhosphate], for which the “ability to induce platelet aggregation in PRP” value in test [1] (platelet-rich plasma, 10 uM ADP, 10 μg/mL epinephrine) is reported as “induce platelet aggregation”. For the same compound, the “number of CD62P-positive cells, % of whole platelet population” value in test [2] is reported as 46.8±3.9%. In test [3], the “number of platelets presenting activated GPIIb/IIIa (CD41/CD61-positive among CD41-positive)” value amounted to 28.0±8.9% and the “elevation of number of platelets presenting activated GPIIb/IIIa as compared with intact platelets” value came out at 4.2 times. Moreover, the “annexin V binding after platelet stimulation (in words)” value (from here on “annexin V binding”) in test [4] was “No annexin V binding”. Further, the “thrombin generation / amidolytic activity in presence of stimulated platelets (PAS assay, in words)” value in test [5] is “no amidolytic activity was detected”.
On to `CCCCC/C=C\C/C=C\C/C=C\C/C=C\CCCC(=O)O` [arachidonic acid], for which the “ability to induce platelet aggregation in GFP” value (“ability … in GFP” below) in test [1] is given as “induce platelet aggregation”. Moreover, the “number of CD62P-positive cells, % of whole platelet population” value in test [2] is 52.1±6.8%. Besides, the “number of CD41/CD61-positive platelets following GFP stimulation (in words)” value (“number … (in words)” below) in test [3] is “not significantly elevated”. Further, the “number of annexin V-positive platelets, % of whole platelet population” value in test [4] (arachidonic acid 1 mM) is 52.12±6.79%. Also, in test [5], the “thrombin generation / amidolytic activity in presence of stimulated platelets (PAS assay, in words)” value was “comparable with sonicated GFP sample”. Also, the “AA concentration required for Ca^2+ influx” value in the test with human platelets is 60 µM.
As to `CNC[C@H](O)c1ccc(O)c(O)c1` [epinephrine], in test [2], the “number of CD62P-positive cells, % of whole platelet population” value is 18.6±1.5%. In test [3], the “number … (in words)” value is recorded as “not significantly elevated”. For the same compound, the “annexin V binding” value in test [4] is “No annexin V binding”. Further, in test [5], the “thrombin generation / amidolytic activity in presence of stimulated platelets (PAS assay, in words)” value was “no amidolytic activity was detected”.
In the case of collagen, the “ability … in GFP” value in test [1] is “induce platelet aggregation”. For the same compound, the “P-selectin exposure (in words)” value in test [2] is recorded as “failed to induce high P-selectin exposure”. The “number … (in words)” value in test [3] was “not significantly elevated”. Also, in test [4], the “annexin V binding” value is given as “No annexin V binding”. In test [5], the “thrombin generation / amidolytic activity in presence of stimulated platelets (PAS assay, in words)” value is reported as “no amidolytic activity was detected”.
Take thrombin: the “ability … in GFP” value in test [1] was “induce platelet aggregation”. The “P-selectin exposure (in words)” value in test [2] is “dramatic augmentation of P-selectin exposure”. In addition, in test [3], the “number of platelets presenting activated GPIIb/IIIa (CD41/CD61-positive among CD41-positive)” value was found to be 63.5±10.2% and the “elevation of number of platelets presenting activated GPIIb/IIIa as compared with intact platelets” value was 9.6 times. Moreover, in test [4], the “annexin V binding” value is “No annexin V binding”.
Take “thrombin receptor activating peptide-6 [TRAP-6]”: in test [1], the “ability … in GFP” value is on record as “induce platelet aggregation”. Moreover, in test [2], the “P-selectin exposure (in words)” value is recorded as “dramatic augmentation of P-selectin exposure”. The “number … (in words)” value in test [3] is “not significantly elevated”. For the same compound, the “annexin V binding” value in test [4] was “No annexin V binding”. Further, the “thrombin generation / amidolytic activity in presence of stimulated platelets (PAS assay, in words)” value in test [5] was “no amidolytic activity was detected”.
